Results reported in patent US20100190846A1, “MICROBICIDAL AGENT AND MICROBICIDAL COMPOSITION” (priority 2006, published 2010).
Values after ≈ are worked out from the molar mass of the structure shown.

Tests used:
Assay in all cases: Agar dilution method microbicidal test
Assay type in all cases: cell-based
[1] = system: Pseudomonas aeruginosa; also: key: +: grew; −: did not grow
Method: (§1) As microbicidal test method for trans-p-coumaric acid, 3-hydroxypyridine, p-hydroxybenzaldehyde and vanillin, the agar dilution method was employed.
(§2) In agar dilution method, a solution in which a sample is dissolved is serially diluted several times, and each of the diluted sample solutions is mixed with agar medium to prepare plate agars having various sample concentration. Then bacteria is inoculated onto the plate agars. In cases where the sample has a microbicidal activity, the growth of the bacteria on the plates can be inhibited. The lowest concentration which can inhibit the growth of the bacteria is referred to as Minimum Inhibitory Concentration (MIC), thereby judging the degree of a microbicidal activity of the sample.
(§3) First, 400 mg of sample was dissolved in 1 mL of DMSO to prepare 400 mg/mL sample solution. Then 0.5 mL of this 400 mg/mL sample solution was diluted 2-fold to prepare 200 mg/mL sample solution. In the same manner, sample solutions of 100 mg/mL, 50.0 mg/mL, and 25.0 mg/mL were prepared. In addition, 300 mg/mL sample solution was prepared. Thereafter, 0.2 mL of these sample solutions each was mixed with 19.8 mL of BHI (Brain Heart Infusion Agar, Becton Dickinson, MD) medium, thereby preparing agar plates having the sample concentration of 4.0 mg/mL, 3.0 mg/mL, 2.0 mg/mL, 1.0 mg/mL, 0.5 mg/mL, and 0.25 mg/mL in dishes. […] Sterilized water was used for dissolving catechin, because catechin was insoluble in DMSO.
(§4) As test bacteria, 13 kinds of bacteria, i.e., Streptococcus pneumoniae, Streptococcus pyogenes, Enterococcus faecalis, Staphylococcus aureus, Escherichia coli, Salmonella sp., Yersinia enterocolitica, Vibrio parahaemolyticus, Pseudomonas aeruginosa, Bacillus cereus, Bacillus subtilis MB-32, Bacillus subtilis ATCC6633, and Candida sp., were used. These bacteria each was mixed with 2 mL of sterilized MHB^R liquid medium (Mueller Hinton Broth^R, Becton Dickinson, MD) to prepare bacterial suspension having turbidity 1 (bacterial concentration 10^8/mL). Previously, small test tubes were set into each cell of a grating and sterilized, and 1 mL of 13 bacterial suspensions were added into the small test tubes set in the grating, respectively. By using a microplanter (SAKUMA, model: MIT-P), 10 μL aliquot was collected from each test tube set in the grating and transferred to other test tube, and the transferred bacterial suspensions were diluted 100-fold (bacterial concentration 10^6/mL).
(§5) By using the microplanter, 10 μL (bacterial number […]) of this bacterial suspension was inoculated onto the plates containing the sample solution of various concentrations. The plates were incubated for 18 hours in an incubator at 37° C., and then a microbicidal activity of each compound was assessed.

[2] = system: Salmonella sp. Also: key: +: grew; −: did not grow.
Method: as §1, §2, §3, §4, §5

[3] = system: Enterococcus faecalis; also: key: +: grew; −: did not grow
Method: as §1, §2, §3, §4, §5

[4] = system: Candida sp. As to Growth on agar plate: key: +: grew; −: did not grow.
Method: as §1, §2, §3, §4, §5

[5] = system: Streptococcus pneumoniae; as to Growth on agar plate: key: +: grew; −: did not grow
Method: as §1, §2, §3, §4, §5

[6] = system: Streptococcus pyogenes; as to Growth on agar plate: key: +: grew; −: did not grow
Method: as §1, §2, §3, §4, §5

[7] = system: Bacillus subtilis MB-32; also: key: +: grew; −: did not grow
Method: as §1, §2, §3, §4, §5

[8] = system: Vibrio parahaemolyticus; as to Growth on agar plate: key: +: grew; −: did not grow
Method: as §1, §2, §3, §4, §5

[9] = system: Staphylococcus aureus; as to Growth on agar plate: key: +: grew; −: did not grow
Method: as §1, §2, §3, §4, §5

[10] = system: Bacillus cereus; as to Growth on agar plate: key: +: grew; −: did not grow
Method: as §1, §2, §3, §4, §5

[11] = system: Bacillus subtilis ATCC6633; as to Growth on agar plate: key: +: grew; −: did not grow
Method: as §1, §2, §3, §4, §5

[12] = system: Yersinia enterocolitica; as to Growth on agar plate: key: +: grew; −: did not grow
Method: as §1, §2, §3, §4, §5

[13] = system: Escherichia coli; also: key: +: grew; −: did not grow
Method: as §1, §2, §3, §4, §5

[14] = BHI agar, 37° C., 18 hours, read-out: MIC

With O=C(O)/C=C/c1ccc(O)cc1 [trans-p-Coumaric Acid, trans-p-coumaric acid] the “Growth on agar plate” value ([1]; 0.25 mg/mL) was “+”, the “Growth on agar plate” value ([1]; 0.5 mg/mL) was “+” and the “Growth on agar plate” value ([1]; 1.0 mg/mL) was “+”. The “Growth on agar plate” value ([1]; 2.0 mg/mL) was “+”, the “Growth on agar plate” value ([1]; 3.0 mg/mL) was “+” and the “Growth on agar plate” value ([1]; 4.0 mg/mL) was “+”. The “Growth on agar plate” value ([2]; 0.25 mg/mL) was “+”, the “Growth on agar plate” value ([2]; 0.5 mg/mL) was “+” and the “Growth on agar plate” value ([2]; 1.0 mg/mL) was “+”. For the same compound, the “Growth on agar plate” value ([2]; 2.0 mg/mL) was “+”, the “Growth on agar plate” value ([2]; 3.0 mg/mL) was “+” and the “Growth on agar plate” value ([2]; 4.0 mg/mL) was “+”. The “Growth on agar plate” value ([3]; 0.25 mg/mL) was “+”, the “Growth on agar plate” value ([3]; 0.5 mg/mL) was “+” and the “Growth on agar plate” value ([3]; 1.0 mg/mL) was “+”. For the same compound, the “Growth on agar plate” value ([3]; 2.0 mg/mL) was “+”, the “Growth on agar plate” value ([3]; 3.0 mg/mL) was “+” and the “Growth on agar plate” value ([3]; 4.0 mg/mL) was “+”. For the same compound, the “activity (in words)” value [4] was “had an activity”, the “Growth on agar plate” value ([4]; 0.25 mg/mL) was “+” and the “Growth on agar plate” value ([4]; 0.5 mg/mL) was “+”. The “Growth on agar plate” value ([4]; 1.0 mg/mL) was “+”, the “Growth on agar plate” value ([4]; 2.0 mg/mL) was “+” and the “Growth on agar plate” value ([4]; 3.0 mg/mL) was “−”. The “Growth on agar plate” value ([4]; 4.0 mg/mL) was “−”, the MIC [4, 14] was 3000 µg/mL (≈ 18.3 mM) and the “activity (in words)” value [5] was “had an activity”. The “Growth on agar plate” value ([5]; 0.25 mg/mL) was “+”, the “Growth on agar plate” value ([5]; 0.5 mg/mL) was “+” and the “Growth on agar plate” value ([5]; 1.0 mg/mL) was “+”. The “Growth on agar plate” value ([5]; 2.0 mg/mL) was “−”, the “Growth on agar plate” value ([5]; 3.0 mg/mL) was “−” and the “Growth on agar plate” value ([5]; 4.0 mg/mL) was “−”. The MIC [5, 14] was 2000 µg/mL (≈ 12.2 mM), the “activity (in words)” value [6] was “had an activity” and the “Growth on agar plate” value ([6]; 0.25 mg/mL) was “+”. For the same compound, the “Growth on agar plate” value ([6]; 0.5 mg/mL) was “+”, the “Growth on agar plate” value ([6]; 1.0 mg/mL) was “+” and the “Growth on agar plate” value ([6]; 2.0 mg/mL) was “+”. The “Growth on agar plate” value ([6]; 3.0 mg/mL) was “−”, the “Growth on agar plate” value ([6]; 4.0 mg/mL) was “−” and the MIC [6, 14] was 3000 µg/mL (≈ 18.3 mM). For the same compound, the “Growth on agar plate” value ([7]; 0.25 mg/mL) was “+”, the “Growth on agar plate” value ([7]; 0.5 mg/mL) was “+” and the “Growth on agar plate” value ([7]; 1.0 mg/mL) was “+”. The “Growth on agar plate” value ([7]; 2.0 mg/mL) was “+”, the “Growth on agar plate” value ([7]; 3.0 mg/mL) was “+” and the “Growth on agar plate” value ([7]; 4.0 mg/mL) was “+”. For the same compound, the “activity (in words)” value [8] was “had an activity”, the “Growth on agar plate” value ([8]; 0.25 mg/mL) was “+” and the “Growth on agar plate” value ([8]; 0.5 mg/mL) was “+”. The “Growth on agar plate” value ([8]; 1.0 mg/mL) was “+”, the “Growth on agar plate” value ([8]; 2.0 mg/mL) was “+” and the “Growth on agar plate” value ([8]; 3.0 mg/mL) was “−”. The “Growth on agar plate” value ([8]; 4.0 mg/mL) was “−”, the MIC [8, 14] was 3000 µg/mL (≈ 18.3 mM) and the “activity (in words)” value [9] was “had an activity”. The “Growth on agar plate” value ([9]; 0.25 mg/mL) was “+”, the “Growth on agar plate” value ([9]; 0.5 mg/mL) was “+” and the “Growth on agar plate” value ([9]; 1.0 mg/mL) was “+”. For the same compound, the “Growth on agar plate” value ([9]; 2.0 mg/mL) was “+”, the “Growth on agar plate” value ([9]; 3.0 mg/mL) was “+” and the “Growth on agar plate” value ([9]; 4.0 mg/mL) was “−”. The MIC [9, 14] was 4000 µg/mL (≈ 24.4 mM), the “activity (in words)” value [10] was “had an activity” and the “Growth on agar plate” value ([10]; 0.25 mg/mL) was “+”. For the same compound, the “Growth on agar plate” value ([10]; 0.5 mg/mL) was “+”, the “Growth on agar plate” value ([10]; 1.0 mg/mL) was “+” and the “Growth on agar plate” value ([10]; 2.0 mg/mL) was “+”. For the same compound, the “Growth on agar plate” value ([10]; 3.0 mg/mL) was “−”, the “Growth on agar plate” value ([10]; 4.0 mg/mL) was “−” and the MIC [10, 14] was 3000 µg/mL (≈ 18.3 mM). The MIC ([11]; ATCC6633, Bacillus subtilis ATCC 6633, BHI agar, 37° C., 18 hours, read-out: MIC) was 3000 µg/mL (≈ 18.3 mM), the “activity (in words)” value ([11]; Bacillus subtilis ATCC6633) was “had an activity” and the “Growth on agar plate” value ([11]; Bacillus subtilis ATCC 6633, 0.25 mg/mL) was “+”. For the same compound, the “Growth on agar plate” value ([11]; Bacillus subtilis ATCC 6633, 0.5 mg/mL) was “+”, the “Growth on agar plate” value ([11]; Bacillus subtilis ATCC 6633, 1.0 mg/mL) was “+” and the “Growth on agar plate” value ([11]; Bacillus subtilis ATCC 6633, 2.0 mg/mL) was “+”. For the same compound, the “Growth on agar plate” value ([11]; Bacillus subtilis ATCC 6633, 3.0 mg/mL) was “−”, the “Growth on agar plate” value ([11]; Bacillus subtilis ATCC 6633, 4.0 mg/mL) was “−” and the “activity (in words)” value [12] was “had an activity”. The “Growth on agar plate” value ([12]; 0.25 mg/mL) was “+”, the “Growth on agar plate” value ([12]; 0.5 mg/mL) was “+” and the “Growth on agar plate” value ([12]; 1.0 mg/mL) was “+”. The “Growth on agar plate” value ([12]; 2.0 mg/mL) was “+”, the “Growth on agar plate” value ([12]; 3.0 mg/mL) was “+” and the “Growth on agar plate” value ([12]; 4.0 mg/mL) was “−”. The MIC [12, 14] was 4000 µg/mL (≈ 24.4 mM), the “Growth on agar plate” value ([13]; 0.25 mg/mL) was “+” and the “Growth on agar plate” value ([13]; 0.5 mg/mL) was “+”. The “Growth on agar plate” value ([13]; 1.0 mg/mL) was “+”, the “Growth on agar plate” value ([13]; 2.0 mg/mL) was “+” and the “Growth on agar plate” value ([13]; 3.0 mg/mL) was “+”. The “Growth on agar plate” value ([13]; 4.0 mg/mL) was “+”.
